Source: ChEMBL document CHEMBL3871287, “Discovery of SMP-304, a novel benzylpiperidine derivative with serotonin transporter inhibitory activity and 5-HT1A weak partial agonistic activity showing the antidepressant-like effect” (Bioorg Med Chem, 2017)
pIC50, pKi: −log10 of the molar value. Active and inactive are the calls of the source. The calls are words filed in the database; no cut-off is given here.

Experiments:
[1] = target: T1, 5-hydroxytryptamine receptor 1A (Homo sapiens, UniProt P08908); test: Displacement of [3H]-8-OH-DPAT from human 5-HT1A receptor expressed in CHOK1 cells after 30 mins by liquid scintillation counting analysis; assay type: cell-based, CHO-K1
T1 sequence (P08908 whole entry): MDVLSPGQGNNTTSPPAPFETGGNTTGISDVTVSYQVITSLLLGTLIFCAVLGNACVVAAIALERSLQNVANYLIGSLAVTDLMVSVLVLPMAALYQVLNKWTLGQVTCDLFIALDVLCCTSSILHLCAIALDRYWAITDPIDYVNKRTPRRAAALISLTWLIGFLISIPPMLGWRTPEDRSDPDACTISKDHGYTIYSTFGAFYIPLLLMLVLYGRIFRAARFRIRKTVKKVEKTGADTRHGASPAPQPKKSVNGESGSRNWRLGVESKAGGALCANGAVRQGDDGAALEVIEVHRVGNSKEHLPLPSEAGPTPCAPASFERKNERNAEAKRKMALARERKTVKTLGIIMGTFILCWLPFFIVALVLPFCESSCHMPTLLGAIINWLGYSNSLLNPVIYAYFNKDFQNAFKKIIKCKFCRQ

[2] = target: T2, Sodium-dependent serotonin transporter (Homo sapiens, UniProt P31645); test: Inhibition of human SERT expressed in CHO cell membranes assessed as reduction in [3H]serotonin uptake preincubated for 10 mins followed by [3H]serotonin addition measured after 20 mins by liquid scintillation counting method; assay type: cell-based
[3] = target: T2, Sodium-dependent serotonin transporter; test: Displacement of [3H]citalopram from human SERT expressed in HEK293 cell membranes after 1 hr by liquid scintillation counting method; assay type: cell-based
Cytochrome P450 2D6 = Cytochrome P450 2D6 (Homo sapiens, UniProt P10635); test: Inhibition of CYP2D6 in human liver microsomes assessed as reduction in formation of 1'-hydroxy-bufuralol from bufuralol preincubated with enzyme followed by substrate and beta-NADPH addition measured after 10 mins by LC-MS/MS analysis; assay type: ADME
Rattus norvegicus [4] = test: Toxicity in Wistar rat assessed as increase in spontaneous locomotor activity at 3 and 10 mg/kg, po administered 26 and 2 hrs prior to testing measured for 30 mins; assay type: organism-based; conditions: in vivo, 0.5 h
[5] = Drug uptake in Wistar rat brain at 1 mg/kg, po administered 26 and 2 hrs prior to testing by HPLC/MS analysis; assay type: ADME, organism-based; conditions: in vivo
[6] = Drug uptake in Wistar rat brain at 3 mg/kg, po administered 26 and 2 hrs prior to testing by HPLC/MS analysis; assay type: ADME, organism-based; conditions: in vivo
[7] = Antidepressant-like activity in Wistar rat assessed as decrease in immobility time at 1 and 3 mg/kg, po administered 30 mins post start of training session for 2 days measured 2 hrs post last dose by forced swimming test; assay type: functional, organism-based
Rattus norvegicus [8] = test: Toxicity in Wistar rat assessed as increase in spontaneous locomotor activity at 1 and 3 mg/kg, po administered 26 and 2 hrs prior to testing measured for 30 mins; assay type: organism-based; conditions: in vivo
HEK293 = test: Selectivity ratio of Ki for human SERT expressed in HEK293 cell membranes to Ki for human 5-HT1A expressed in CHO-K1 cell membranes; assay type: cell-based

T2 sequence (P31645 whole entry): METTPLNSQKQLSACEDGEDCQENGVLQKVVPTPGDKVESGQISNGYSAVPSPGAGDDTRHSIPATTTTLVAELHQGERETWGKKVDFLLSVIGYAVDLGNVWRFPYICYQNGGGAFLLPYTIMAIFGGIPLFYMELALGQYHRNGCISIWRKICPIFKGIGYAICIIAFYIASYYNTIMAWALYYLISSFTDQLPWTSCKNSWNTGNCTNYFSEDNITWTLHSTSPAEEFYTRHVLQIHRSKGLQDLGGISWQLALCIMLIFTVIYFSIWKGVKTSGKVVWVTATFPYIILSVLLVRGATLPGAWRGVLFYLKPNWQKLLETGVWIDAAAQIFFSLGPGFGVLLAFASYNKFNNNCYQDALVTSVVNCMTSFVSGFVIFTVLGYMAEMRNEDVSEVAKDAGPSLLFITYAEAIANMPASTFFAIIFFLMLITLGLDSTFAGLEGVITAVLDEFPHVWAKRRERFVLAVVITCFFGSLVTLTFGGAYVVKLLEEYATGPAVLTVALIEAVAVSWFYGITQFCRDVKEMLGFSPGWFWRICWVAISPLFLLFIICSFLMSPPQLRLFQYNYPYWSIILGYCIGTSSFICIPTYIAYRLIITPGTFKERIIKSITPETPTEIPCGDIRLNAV
Cytochrome P450 2D6, sequence (P10635 whole entry): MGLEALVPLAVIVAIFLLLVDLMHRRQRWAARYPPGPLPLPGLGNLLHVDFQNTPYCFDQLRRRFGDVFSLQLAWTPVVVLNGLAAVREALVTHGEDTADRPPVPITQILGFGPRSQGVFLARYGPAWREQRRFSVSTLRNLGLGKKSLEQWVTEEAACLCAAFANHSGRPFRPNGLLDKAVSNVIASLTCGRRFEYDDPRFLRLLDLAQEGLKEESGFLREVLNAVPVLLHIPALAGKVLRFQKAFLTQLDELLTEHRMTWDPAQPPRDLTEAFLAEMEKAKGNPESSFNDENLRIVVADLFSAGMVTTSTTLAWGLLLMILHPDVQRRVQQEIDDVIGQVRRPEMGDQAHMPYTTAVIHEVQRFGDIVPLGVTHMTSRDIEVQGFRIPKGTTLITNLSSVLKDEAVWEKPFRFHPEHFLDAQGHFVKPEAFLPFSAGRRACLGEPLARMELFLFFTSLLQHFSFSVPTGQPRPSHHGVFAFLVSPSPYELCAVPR

Row | pKi [1] | pKi [2] | SMILES | also measured
1 | 8.87 | 7.34 | COc1ccc(Br)c(CC2CCN(CCc3ccc(Cl)cc3)CC2)c1 | 
2 | 8.98 | 7.72 | COc1ccc(Br)c(CC2CCN(CCc3ccc(OC)c(Cl)c3)CC2)c1 | 
3 | 7.63 | 7.73 | CCOc1ccc(Br)c(CC2CCN(CCc3cc4c(cc3Cl)OCCO4)CC2)c1 | pIC50 (Cytochrome P450 2D6): 5.85
4 | 8.53 | 7.37 | COc1ccc(Br)c(CC2CCN(CCc3cccc(Cl)c3)CC2)c1 | 
5 | 8.98 | 7.29 | COc1ccc(Br)c(CC2CCN(CCc3ccc(F)cc3)CC2)c1 | 
6 | 8.85 | 7.19 | COc1ccc(Br)c(CC2CCN(CCc3ccc(C)cc3)CC2)c1 | 
7 | 9.09 | 7.43 | COc1cccc(CCN2CCC(Cc3cc(OC)ccc3Br)CC2)c1 | 
8 | 8.71 | 7.55 | COc1ccc(Br)c(CC2CCN(CCc3cc(OC)c(OC)cc3Cl)CC2)c1 | 
9 | 8.81 | 7.57 | COc1ccc(Br)c(CC2CCN(CCc3ccc(OC)c(OC)c3)CC2)c1 | 
10 | 7.80 | 7.86 | CC(C)Oc1ccc(Br)c(CC2CCN(CCc3cc4c(cc3Cl)OCCO4)CC2)c1 | pIC50 (Cytochrome P450 2D6): 5.82
11 | 8.52 | 7.42 | COc1ccc(Br)c(CC2CCN(CCc3ccccc3OC)CC2)c1 | 
12 | 8.32 | 7.41 | COc1ccc(Br)c(CC2CCN(CCc3cccc4ccccc34)CC2)c1 | 
13 | 8.19 | 7.91 | COc1ccc(Br)c(CC2CCN(CCc3cc4c(cc3Cl)OCCO4)CC2)c1 | Ratio Ki (HEK293): < 2; pIC50 (Cytochrome P450 2D6): > 6.40

Continued, molecule first:

Row | SMILES | pKi [1] | pKi [2] | also measured
14 | COc1ccc(Br)c(CC2CCN(CCc3ccc4ccccc4c3)CC2)c1 | 9.05 | 7.59 | 
15 | COc1cccc(CC2CCN(CCc3ccccc3)CC2)c1 | 7.53 |  | pKi [3]: 6.67
16 | Fc1ccc([C@@H]2CCNC[C@H]2COc2ccc3c(c2)OCO3)cc1 [PAROXETINE] |  |  | Activity (Rattus norvegicus [4]): Non-Toxic
17 | COc1ccc(Br)c(CC2CCN(CCc3ccc4c(c3)OCCO4)CC2)c1 | 9.44 | 7.85 | 
18 | COc1ccc(F)c(CC2CCN(CCc3ccccc3)CC2)c1 | 8.22 |  | pKi [3]: 6.56
19 | COc1ccc(F)c(CC2CCN(C3CCN(c4ccc(OC)c(OC)c4)CC3)CC2)c1 |  |  | pKi [3]: > 7.00
20 | COc1ccc(Cl)c(CC2CCN(CCc3ccccc3)CC2)c1 | 8.64 |  | pKi [3]: 6.99
21 | COc1ccc(CCN2CCC(Cc3cc(OC)ccc3Br)CC2)cc1 | 9.09 | 7.43 | 
22 | COc1ccc(Br)c(CC2CCN(CCc3ccccc3Cl)CC2)c1 | 8.39 | 7.20 | 
23 | COc1ccc(Br)c(CC2CCN(CCc3cccc4c3OCCO4)CC2)c1 | 8.67 | 7.59 | 
24 | COc1ccc(CCN2CCC(Cc3cc(OC)ccc3Br)CC2)c(Cl)c1 | 8.95 | 7.52 | 
25 | COc1ccc(Br)c(CC2CCN(C3CCN(c4ccc(OC)c(OC)c4)CC3)CC2)c1 |  |  | pIC50 [1]: > 8.00
26 | COCCOc1ccc(Br)c(CC2CCN(CCc3cc4c(cc3Cl)OCCO4)CC2)c1.Cl |  | 7.49 | pIC50 [2]: 6.51; Drug uptake [5]: 6.74 nmol/kg; Drug uptake [6]: 30.3 nmol/kg; pIC50 (Cytochrome P450 2D6): 5.52; Activity [7]: Active; Activity (Rattus norvegicus [8]): Non-Toxic
27 | COc1ccc(Br)c(CC2CCN(CCc3ccccc3)CC2)c1 | 8.57 | 7.18 | Ratio Ki (HEK293): > 20; pKi [3]: 7.18
